pIC50: −log10 of the molar value.
Target: T1, Human IDO1 (Homo sapiens, UniProt P14902)
T1 construct: expressed in transfected cells; host or cells: HEK293
Assay: IDO Kynurenine Assay with Human IDO1/HEK293 Cells
Assay type: cell-based
Settings: read-out: HEK human IDO-1 (IC50)
Method: IDO Kynurenine Assay with Human IDO1/HEK293 Cells
Human IDO1/HEK293 cells were seeded at 10,000 cells per 50 uL per well with RPMI/phenol red free media contains 10% FBS in a 384-well black wall clear bottom tissue culture plate (Matrix Technologies LLC) 125 nL of certain concentration of compound was then added to each well using ECHO liquid handling systems. The cells were incubated for 20 hours in 37° C. incubator with 5% CO2.
The compound treatments were stopped by adding Trichloroacetic Acid (Sigma-Aldrich) to a final concentration at 0.2%. The cell plate was further incubated at 50° C. for 30 minute. The equal volume supernatant (20 uL) and 0.2% (w/v) Ehrlich reagent (4-dimethylaminobenzaldehyde, Sigma-Aldrich) in glacial acetic acid were mixed in a new clear bottom 384-well plate. This plate was then incubated at room temperature for 30 minute. The absorbance at 490 nm was measured on Envision plate reader.
Compound IC50 values were calculated using the counts of 500 nM of a reference standard treatment as one hundred percent inhibition, and counts of no compound but DMSO treatment as zero percent inhibition.

T1 sequence (P14902 whole entry): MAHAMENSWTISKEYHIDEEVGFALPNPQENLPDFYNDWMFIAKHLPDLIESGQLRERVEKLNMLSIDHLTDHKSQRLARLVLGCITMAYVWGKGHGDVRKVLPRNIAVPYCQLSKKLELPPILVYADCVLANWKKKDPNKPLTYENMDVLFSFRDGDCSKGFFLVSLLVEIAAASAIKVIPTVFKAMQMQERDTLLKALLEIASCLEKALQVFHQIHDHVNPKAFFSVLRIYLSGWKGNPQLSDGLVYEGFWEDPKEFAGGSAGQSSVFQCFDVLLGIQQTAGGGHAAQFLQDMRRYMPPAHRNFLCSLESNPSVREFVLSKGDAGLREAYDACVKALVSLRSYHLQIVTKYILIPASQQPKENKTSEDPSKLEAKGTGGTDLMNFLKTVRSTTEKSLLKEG

Row | Structure (SMILES) | pIC50
1 | Cc1ccc(NC(=O)Nc2cc(-c3ccccc3-c3nnn[nH]3)ccc2N(CC(C)C)[C@H]2CC[C@@H](C(F)(F)F)CC2)cc1 [Example 305, 1-(4-(isobutyl(4-(trifluoromethyl)cyclohexyl)amino)-2′-(1H-tetrazol-5-yl)-[1,1′-biphenyl]-3-yl)-3-(p-tolyl) urea] | 8.22
2 | Cc1ccc(NC(=O)Nc2cc(-c3cc(F)ccc3C(=O)O)ccc2N(CC(C)C)C2CCC(C(F)(F)F)CC2)cc1 (stereo not drawn) [Example 306, 5-fluoro-4′-(isobutyl(4-(trifluoromethyl)cyclohexyl)amino)-3′-(3-(p-tolyl)ureido)-[1,1′-biphenyl]-2-carboxylic acid] | 7.40
3 | Cc1ccc(NC(=O)Nc2cc(-c3ccccc3C(=O)O)ccc2N(CC(C)C)C2CCC(C(F)(F)F)CC2)cc1 (stereo not drawn) [Example 307, 4′-(isobutyl(4-(trifluoromethyl)cyclohexyl)amino)-3′-(3-(p-tolyl)ureido)-[1,1′-biphenyl]-2-carboxylic acid] | 7.40
4 | Cc1cnc(NC(=O)Nc2cc(-c3ccccc3-c3nnn[nH]3)ccc2N(CC(C)C)CC(C)C)cn1 [Example 308, 1-(4-(diisobutylamino)-2′-(2H-tetrazol-5-yl)-[1,1′-biphenyl]-3-yl)-3-(5-methylpyrazin-2-yl)urea] | 6.57
5 | Cc1cccc(-c2ccc(N(CC(C)C)CC(C)C)c(NC(=O)Nc3ccc(OC(F)(F)F)cc3)c2)c1C(=O)O [Example 309, 4′-(Diisobutylamino)-3-methyl-3′-(3-(4-(trifluoromethoxy)phenyl)ureido)-[1,1′-biphenyl]-2-carboxylic acid] | 8.40
6 | Cc1ccc(NC(=O)Nc2cc(-c3ccccc3-c3nnn[nH]3)ccc2N(CC(C)(F)F)C2CCCCC2)cc1 [Example 356, 1-(4-(cyclohexyl(2,2-difluoropropyl)amino)-2′-(1H-tetrazol-5-yl)-[1,1′-biphenyl]-3-yl)-3-(p-tolyl)urea] | 8.39
7 | CC(C)CN(CC(C)C)c1ccc(-c2ccc(Cl)cc2C(=O)O)cc1NC(=O)Nc1ccc(C#N)nc1 [Example 359, 4-Chloro-3′-(3-(6-cyanopyridin-3-yl)ureido)-4′-(diisobutylamino)-[1,1′-biphenyl]-2-carboxylic acid] | 6.26

Target: IDO (Homo sapiens, UniProt P14902)
Assay: LLE_IDO_ABS_DR (IDO assay)
Settings: not given

Chain of IDO (P14902 whole entry): as above

Row | Structure (SMILES) | pIC50
8 | O=C(Nc1ccc(C2CC2)cc1)Nc1cc(-c2ccccc2-c2nnn[nH]2)ccc1N1CCC(F)(F)C1 [Example 347, 1-(4-cyclopropylphenyl)-3-(4-(3,3-difluoropyrrolidin-1-yl)-2′-(1H-tetrazol-5-yl)-[1,1′-biphenyl]-3-yl)urea] | 5.28
9 | O=C(Nc1ccc(C2CC2)cc1)Nc1cc(-c2ccccc2-c2nnn[nH]2)ccc1N(CCC(F)(F)F)Cc1ccc(F)cc1 [Example 350, 1-(4-cyclopropylphenyl)-3-(4-((4-fluorobenzyl)(3,3,3-trifluoropropyl)amino)-2′-(1H-tetrazol-5-yl)-[1,1′-biphenyl]-3-yl)urea] | 6.60
10 | O=C(Nc1ccc(C2CC2)c(F)c1)Nc1cc(-c2ccccc2-c2nnn[nH]2)ccc1N(CCC(F)(F)F)Cc1ccc(Cl)cc1Cl [Example 351, 1-(4-cyclopropyl-3-fluorophenyl)-3-(4-((2,4-dichlorobenzyl)(3,3,3-trifluoropropyl)amino)-2′-(1H-tetrazol-5-yl)-[1,1′-biphenyl]-3-yl)urea] | 6.46
11 | O=C(Nc1ccc(C2CC2)c(F)c1)Nc1cc(-c2ccccc2-c2nnn[nH]2)ccc1N(CCC(F)(F)F)Cc1ccccn1 [Example 354, 1-(4-cyclopropyl-3-fluorophenyl)-3-(4-((pyridin-2-ylmethyl)(3,3,3-trifluoropropyl)amino)-2′-(1H-tetrazol-5-yl)-[1,1′-biphenyl]-3-yl)urea] | 6.92
12 | Cc1ccc(NC(=O)Nc2cc(-c3ccccc3-c3nnn[nH]3)ccc2N2CCCc3ccccc32)cn1 [Example 362, 1-(4-(3,4-Dihydroquinolin-1(2H)-yl)-2′-(1H-tetrazol-5-yl)-[1,1′-biphenyl]-3-yl)-3-(6-methylpyridin-3-yl)urea] | 5.26
13 | O=C(Nc1ccc(OC(F)(F)F)cc1)Nc1cc(-c2ccccc2-c2nnn[nH]2)ccc1N1CCCc2ccccc21 [Example 363, 1-(4-(3,4-Dihydroquinolin-1(2H)-yl)-2′-(1H-tetrazol-5-yl)-[1,1′-biphenyl]-3-yl)-3-(4-(trifluoromethoxy)phenyl)urea] | 6.05
14 | O=C(Nc1ccc(C(F)(F)F)cc1F)Nc1cc(-c2ccccc2-c2nnn[nH]2)ccc1N1CCCc2ccccc21 [Example 364, 1-(4-(3,4-Dihydroquinolin-1(2H)-yl)-2′-(1H-tetrazol-5-yl)-[1,1′-biphenyl]-3-yl)-3-(2-fluoro-4-(trifluoromethyl)phenyl)urea] | 5.33
15 | O=C(Nc1ccc(F)nc1)Nc1cc(-c2ccccc2-c2nnn[nH]2)ccc1N1CCCc2ccccc21 [Example 365, 1-(4-(3,4-Dihydroquinolin-1(2H)-yl)-2′-(1H-tetrazol-5-yl)-[1,1′-biphenyl]-3-yl)-3-(6-fluoropyridin-3-yl)urea] | 5.30
16 | Cc1cc(NC(=O)Nc2cc(-c3ccccc3-c3nnn[nH]3)ccc2N2CCCc3ccccc32)on1 [Example 366, 1-(4-(3,4-Dihydroquinolin-1(2H)-yl)-2′-(1H-tetrazol-5-yl)-[1,1′-biphenyl]-3-yl)-3-(3-methylisoxazol-5-yl)urea] | 5.30
17 | Cc1ccc(NC(=O)Nc2cc(-c3cc(F)ccc3C(=O)O)ccc2N(CCC(C)(C)O)Cc2ccc(Cl)cc2)cc1 [Example 374] | 5.16
18 | Cc1ccc(NC(=O)Nc2cc(-c3ccccc3-c3nnn[nH]3)ccc2N(CCC(C)(C)O)Cc2ccc(Cl)cc2)cc1 [Example 375] | 5.32
19 | Cc1ccc(NC(=O)Nc2cc(-c3ccccc3-c3nnn[nH]3)ccc2N(CC(C)C)CC2CC(F)(F)C2)cc1 [Example 381] | 6.96
20 | Cc1ccc(NC(=O)Nc2cc(-c3ccccc3-c3nnn[nH]3)ccc2N2CCC(c3ccc(F)cc3)C2)cc1 (stereo not drawn) [Example 386] | 7.40
21 | Cc1ccc(NC(=O)Nc2cc(-c3ccccc3-c3nnn[nH]3)ccc2N2CCC(c3ccc(F)cc3)C2)cn1 (stereo not drawn) [Example 387] | 5.65

Results, then the molecule that gave them:

Row | pIC50 | Structure (SMILES)
22 | 5.00 | Cc1ccc(NC(=O)Nc2cc(-c3ccccc3-c3nnn[nH]3)ccc2N2CCC(c3nc(C)no3)C2)cn1 (stereo not drawn) [Example 388]
23 | 6.21 | Cc1ccc(NC(=O)Nc2cc(-c3ccccc3-c3nnn[nH]3)ccc2N2CCC(c3nc(C)no3)C2)cc1 (stereo not drawn) [Example 389]
24 | 5.80 | Cc1noc(C2CCN(c3ccc(-c4ccccc4-c4nnn[nH]4)cc3NC(=O)Nc3ccc(C(F)(F)F)cc3F)C2)n1 (stereo not drawn) [Example 390]
25 | 7.10 | Cc1ccc(NC(=O)Nc2cc(-c3ccccc3-c3nnn[nH]3)ccc2N(Cc2ccc(Cl)cc2)C2CCCCC2)cc1 [Example 468]
26 | 6.14 | Cc1ccc(NC(=O)Nc2cc(-c3cc(F)ccc3C(=O)O)ccc2N(Cc2ccc(Cl)cc2)C2CCCCC2)cc1 [Example 469]
27 | 6.72 | O=C(Nc1ccccc1F)Nc1cc(-c2cc(F)ccc2C(=O)O)ccc1N(Cc1ccc(Cl)cc1)C1CCCCC1 [Example 470]
28 | 7.40 | C=C(C)CN(CC(F)(F)F)c1ccc(-c2ccccc2C(=O)O)cc1NC(=O)Nc1ccc(C)cc1 [Example 471]
29 | 7.05 | Cc1ccc(NC(=O)Nc2cc(-c3ccccc3C(=O)O)ccc2N(CC(C)C)CC(F)(F)F)cc1 [Example 474]
30 | 7.30 | Cc1ccc(NC(=O)Nc2cc(-c3ccccc3-c3nnn[nH]3)ccc2N(CC(C)C)CC(F)(F)F)cc1 [Example 475]
31 | 6.85 | Cc1ccc(NC(=O)Nc2cc(-c3cc(F)ccc3C(=O)O)ccc2N(CC(C)C)CC(F)(F)F)cc1 [Example 476]
32 | 5.42 | CN(c1ccc(-c2cc(F)ccc2C(=O)O)cc1NC(=O)Nc1ccccc1F)c1ccccc1C(C)(C)C [Example 479]
33 | 5.74 | CN(c1ccc(-c2ccccc2C(=O)O)cc1NC(=O)Nc1ccccc1F)c1ccccc1C(C)(C)C [Example 480]
34 | 5.74 | Cc1ccc(NC(=O)Nc2cc(-c3ccccc3C(=O)O)ccc2N(C)c2ccccc2C(C)(C)C)cc1 [Example 481]
35 | 7.40 | Cc1ccc(NC(=O)Nc2cc(-c3ccccc3-c3nnn[nH]3)ccc2N(CCC(F)(F)F)Cc2ccc(Cl)cc2Cl)cc1 [Example 505, 1-(4-((2,4-Dichlorobenzyl)(3,3,3-trifluoropropyl)amino)-2′-(1H-tetrazol-5-yl)-[1,1′-biphenyl]-3-yl)-3-(p-tolyl)urea]
36 | 7.40 | Cc1ccc(NC(=O)Nc2cc(-c3ccccc3-c3nnn[nH]3)ccc2N(CCC(F)(F)F)Cc2ccccn2)cc1 [Example 506, 1-(4-((pyridin-2-ylmethyl)(3,3,3-trifluoropropyl)amino)-2′-(1H-tetrazol-5-yl)-[1,1′-biphenyl]-3-yl)-3-(p-tolyl)urea]
37 | 8.86 | CC(C)CN(c1ccc(-c2ccccc2C(=O)O)cc1NC(=O)Nc1ccccc1F)C1CCC(F)(F)CC1 [Example 510, 4′-((4,4-Difluorocyclohexyl)(isobutyl)amino)-3′-(3-(2-fluorophenyl)ureido)-[1,1′-biphenyl]-2-carboxylic acid]
38 | 8.09 | CC(C)CN(c1ccc(-c2ccccc2C(=O)O)cc1NC(=O)Nc1ccc(OC(F)(F)F)cc1)C1CCC(F)(F)CC1 [Example 511, 4′-((4,4-Difluorocyclohexyl)(isobutyl)amino)-3′-(3-(4-(trifluoromethoxy)phenyl)ureido)-[1,1′-biphenyl]-2-carboxylic acid]
39 | 8.00 | CC(C)CN(c1ccc(-c2ccccc2C(=O)O)cc1NC(=O)Nc1ccc(C(F)(F)F)cc1)C1CCC(F)(F)CC1 [Example 513]

From patent publication US9758492B2, “IDO inhibitors” (Bristol-Myers Squibb Company, priority 2013, dated 2017)
